Reference: patent publication US20260159486A1, “BENZO[H]QUINAZOLINE-4-AMINE DERIVATIVES FOR THE TREATMENT OF CANCER” (Redona Therapeutics, Inc., priority 2021, published 2026)

Assays:
recombinant human CLK3 = target: T1, recombinant human CLK3 (Homo sapiens, UniProt P49761); assay: CLK3 kinase assay (LANCE Ultra); format: biochemical; conditions: CLK3 0.5 nM, ATP 300 μM, 3 hours at 30° C.
T1 construct: purchased Thermo Fisher Scientific PV3826
Method in brief: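 Recombinant human CLK3 (0.5 nM) with ULight-CREBtide (50 nM) and 300 μM ATP, 3 h at 30 °C in kinase buffer; EDTA stop, then Eu-anti-phospho-CREB antibody (2 nM, 1 h RT), TR-FRET read at 665/620 nm. Inhibition normalized to DMSO and no-ATP wells; IC50 from 4-parameter fit, ten 1:3 concentrations in duplicate.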

MDA-MB-231 cells = assay: MDA-MB-231 proliferation assay; format: cell-based; conditions: Homo sapiens, MDA-MB-231, 72 h, YO-PRO-1 Iodide readout
Method in brief: (§1)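 Cells seeded at 750 per well, treated next day for 72 h at 37 °C with 0.5% final DMSO. Cell number read by YO-PRO-1 fluorescence after lysis, normalized to DMSO (100%) and time-zero cells (0%). GI50 from 4-parameter logistic fit, maximum constrained to 100%.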

CAL-51 cells = assay: CAL-51 proliferation assay; format: cell-based; conditions: Homo sapiens, CAL-51, 72 h, YO-PRO-1 Iodide readout
Method in brief: as §1

T1 sequence (P49761 whole entry): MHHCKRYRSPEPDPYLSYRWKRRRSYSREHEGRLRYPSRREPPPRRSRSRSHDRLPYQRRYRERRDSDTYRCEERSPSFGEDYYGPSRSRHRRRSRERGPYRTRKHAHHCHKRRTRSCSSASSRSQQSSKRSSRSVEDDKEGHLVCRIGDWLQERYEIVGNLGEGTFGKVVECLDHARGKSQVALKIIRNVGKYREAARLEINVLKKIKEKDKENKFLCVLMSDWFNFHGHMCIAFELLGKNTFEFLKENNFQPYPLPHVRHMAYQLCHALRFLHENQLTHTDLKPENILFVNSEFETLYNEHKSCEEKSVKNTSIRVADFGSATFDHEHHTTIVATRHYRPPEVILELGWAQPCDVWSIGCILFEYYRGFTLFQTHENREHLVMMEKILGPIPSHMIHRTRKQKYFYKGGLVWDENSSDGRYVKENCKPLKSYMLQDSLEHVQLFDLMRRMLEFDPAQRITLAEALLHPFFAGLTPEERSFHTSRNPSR

| IC50 (recombinant human CLK3) | GI50 (MDA-MB-231 cells) | SMILES | GI50 (CAL-51 cells) |
| --- | --- | --- | --- |
| < 30 nM | < 100 nM | CN(CCO)c1c(O[C@H]2CC[C@@H](N)CC2)ccc2c1CC1(CCCC1)c1c(N)ncnc1-2 [Example 83, 2-[[4-amino-8-(cis-4-aminocyclohexoxy)spiro[6H-benzo[h]quinazoline-5,1′-cyclopentane]-7-yl]-methyl-amino]ethanol] | < 100 nM |
| 30 to 100 nM | 100 to 2000 nM | CN1CCOc2ccc3c(c21)CC(C)(C)c1c(N)ncnc1-3 [Example 4, 4,6,6-trimethyl-3,5-dihydro-2H-quinazolino[7,8-f][1,4]benzoxazin-7-amine] | 100 to 2000 nM |
| < 30 nM | < 100 nM | CC1(C)Cc2c(ccc(O[C@H]3CC[C@H](N)CC3)c2N(CCC#N)C2CC2)-c2ncnc(N)c21 [Example 51, 3-[[4-amino-8-(trans-4-aminocyclohexoxy)-5,5-dimethyl-6H-benzo[h]quinazolin-7-yl]-cyclopropyl-amino]propanenitrile] | < 100 nM |
| 101 to 1000 nM | > 2000 nM | CC(C)CCN(C)c1c(O[C@H]2CC[C@H](N)CC2)ccc2c1CC(C)(C)c1c(N)ncnc1-2 [Example 104, 8-(trans-4-aminocyclohexoxy)-N7-isopentyl-N7,5,5-trimethyl-6H-benzo[h]quinazoline-4,7-diamine] | 100 to 2000 nM |
| 30 to 100 nM | 100 to 2000 nM | CC1(C)Cc2c(ccc(O[C@H]3CC[C@H](N)CC3)c2NCC#N)-c2ncnc(N)c21 [Example 35, 2-[[4-amino-8-(trans-4-aminocyclohexoxy)-5,5-dimethyl-6H-benzo[h]quinazolin-7-yl]amino]acetonitrile] | 100 to 2000 nM |
| 30 to 100 nM | 100 to 2000 nM | CC1(C)Cc2c(ccc3c2N(CCC#N)CCO3)-c2ncnc(N)c21 [Example 117, 3-(7-amino-6,6-dimethyl-3,5-dihydro-2H-quinazolino[7,8-f][1,4]benzoxazin-4-yl)propanenitrile] | < 100 nM |
| 30 to 100 nM | 100 to 2000 nM | COC1CCN(c2c(O[C@H]3CC[C@H](N)CC3)ccc3c2CC(C)(C)c2c(N)ncnc2-3)C1 (single isomer, unassigned) [Example 63, 8-(trans-4-aminocyclohexoxy)-7-(3-methoxypyrrolidin-1-yl)-5,5-dimethyl-6H-benzo[h]quinazolin-4-amine] | 100 to 2000 nM |
| < 30 nM | 100 to 2000 nM | CC1(C)Cc2c(ccc(O[C@H]3CC[C@H](N)CC3)c2C(=O)NCC#N)-c2ncnc(N)c21 [Example 90, 4-amino-8-(trans-4-aminocyclohexoxy)-N-(cyanomethyl)-5,5-dimethyl-6H-benzo[h]quinazoline-7-carboxamide] | 100 to 2000 nM |
| < 30 nM | > 2000 nM | CC1(C)Cc2c(ccc(O[C@H]3CC[C@H](N)CC3)c2N2CCC(C(N)=O)C2)-c2ncnc(N)c21 (stereo partly drawn) [Example 77, 1-[4-amino-8-(trans-4-aminocyclohexoxy)-5,5-dimethyl-6H-benzo[h]quinazolin-7-yl]pyrrolidine-3-carboxamide] | 100 to 2000 nM |

The remaining lines, values behind:

| SMILES | IC50 (recombinant human CLK3) | GI50 (MDA-MB-231 cells) | GI50 (CAL-51 cells) |
| --- | --- | --- | --- |
| CN(CC1(C#N)CC1)c1c(O[C@H]2CC[C@H](N)CC2)ccc2c1CC(C)(C)c1c(N)ncnc1-2 [Example 48, 1-[[[4-amino-8-(trans-4-aminocyclohexoxy)-5,5-dimethyl-6H-benzo[h]quinazolin-7-yl]-methyl-amino]methyl]cyclopropanecarbonitrile] | < 30 nM | < 100 nM | < 100 nM |
| COc1ccc2c(c1C)CC(C)(C)c1c(N)ncnc1-2 [Example 1, 8-methoxy-5,5,7-trimethyl-6H-benzo[h]quinazolin-4-amine] | < 30 nM | > 2000 nM | 100 to 2000 nM |
| CN(CCC(F)(F)F)c1c(O[C@H]2CC[C@H](N)CC2)ccc2c1CC(C)(C)c1c(N)ncnc1-2 [Example 43, 8-(trans-4-aminocyclohexoxy)-N7,5,5-trimethyl-N7-(3,3,3-trifluoropropyl)-6H-benzo[h]quinazoline-4,7-diamine] | 30 to 100 nM | 100 to 2000 nM | 100 to 2000 nM |
| CC1(C)Cc2c(ccc(O[C@H]3CC[C@H](N)CC3)c2NC(=O)CO)-c2ncnc(N)c21 [Example 45, N-[4-amino-8-(trans-4-aminocyclohexoxy)-5,5-dimethyl-6H-benzo[h]quinazolin-7-yl]-2-hydroxy-acetamide] | 101 to 1000 nM | > 2000 nM | > 2000 nM |
| COc1ccc2c(c1NCc1nnc(C(C)F)o1)CC(C)(C)c1c(N)ncnc1-2 (stereo not drawn) [Example 122, N7-[[5-(1-fluoroethyl)-1,3,4-oxadiazol-2-yl]methyl]-8-methoxy-5,5-dimethyl-6H-benzo[h]quinazoline-4,7-diamine] | 101 to 1000 nM | > 2000 nM | 100 to 2000 nM |
| CC1(C)Cc2c(ccc3c2NCCO3)-c2ncnc(N)c21 [Example 3, 6,6-dimethyl-2,3,4,5-tetrahydroquinazolino[7,8-f][1,4]benzoxazin-7-amine] | 101 to 1000 nM | > 2000 nM | 100 to 2000 nM |
| CCN(CCO)c1c(O[C@H]2CC[C@@H](N)CC2)ccc2c1CC(C)(C)c1c(N)ncnc1-2 [Example 22, 2-[[4-amino-8-(4-cis-aminocyclohexoxy)-5,5-dimethyl-6H-benzo[h]quinazolin-7-yl]-ethyl-amino]ethanol] | < 30 nM | 100 to 2000 nM | < 100 nM |
| CN(c1c(O[C@H]2CC[C@H](N)CC2)ccc2c1CC(C)(C)c1c(N)ncnc1-2)S(=O)(=O)CCO [Example 44, N-[4-amino-8-(4-trans-aminocyclohexoxy)-5,5-dimethyl-6H-benzo[h]quinazolin-7-yl]-2-hydroxy-N-methyl-ethanesulfonamide] | < 30 nM | 100 to 2000 nM | 100 to 2000 nM |
| CC(C)N(C)c1c(O[C@H]2CC[C@H](N)CC2)ccc2c1CC(C)(C)c1c(N)ncnc1-2 [Example 102, 8-(trans-4-aminocyclohexoxy)-N7-isopropyl-N7,5,5-trimethyl-6H-benzo[h]quinazoline-4,7-diamine] | < 30 nM | 100 to 2000 nM | < 100 nM |
| CC1(C)Cc2c(ccc(O[C@H]3CC[C@H](N)CC3)c2N2CCC(C#N)C2)-c2ncnc(N)c21 (stereo partly drawn) [Example 66, 1-[4-amino-8-(trans-4-aminocyclohexoxy)-5,5-dimethyl-6H-benzo[h]quinazolin-7-yl]pyrrolidine-3-carbonitrile] | < 30 nM | < 100 nM | < 100 nM |
| CC1(C)Cc2c(ccc(O[C@H]3CC[C@H](N)CC3)c2OCCC#N)-c2ncnc(N)c21 [Example 71, 3-[[4-amino-8-(trans-4-aminocyclohexoxy)-5,5-dimethyl-6H-benzo[h]quinazolin-7-yl]oxy]propanenitrile] | < 30 nM | 100 to 2000 nM | < 100 nM |
| CC(CCO)c1c(O[C@H]2CC[C@H](N)CC2)ccc2c1CC(C)(C)c1c(N)ncnc1-2 (stereo partly drawn) [Example 92, 3-[4-amino-8-(trans-4-aminocyclohexoxy)-5,5-dimethyl-6H-benzo[h]quinazolin-7-yl]butan-1-ol] | < 30 nM | < 100 nM | < 100 nM |
| COCCS(=O)(=O)N(C)c1c(O[C@H]2CC[C@H](N)CC2)ccc2c1CC(C)(C)c1c(N)ncnc1-2 [Example 64, N-[4-amino-8-(trans-4-aminocyclohexoxy)-5,5-dimethyl-6H-benzo[h]quinazolin-7-yl]-2-methoxy-N-methyl-ethanesulfonamide] | < 30 nM | < 100 nM | < 100 nM |
| CN(CC(C)(C)CO)c1c(O[C@H]2CC[C@H](N)CC2)ccc2c1CC(C)(C)c1c(N)ncnc1-2 [Example 110, 3-[[4-amino-8-(trans-4-aminocyclohexoxy)-5,5-dimethyl-6H-benzo[h]quinazolin-7-yl]-methyl-amino]-2,2-dimethyl-propan-1-ol] | < 30 nM | 100 to 2000 nM | < 100 nM |
| COCCNc1c(O[C@H]2CC[C@H](N)CC2)ccc2c1CC(C)(C)c1c(N)ncnc1-2 [Example 18, 8-(trans-4-aminocyclohexoxy)-N7-(2-methoxyethyl)-5,5-dimethyl-6H-benzo[h]quinazoline-4,7-diamine] | 101 to 1000 nM | 100 to 2000 nM | 100 to 2000 nM |
| CN[C@H]1CC[C@H](Oc2ccc3c(c2N(C)CCC#N)CC(C)(C)c2c(N)ncnc2-3)CC1 [Example 99, 3-[[4-amino-5,5-dimethyl-8-[trans-4-(methylamino)cyclohexoxy]-6H-benzo[h]quinazolin-7-yl]-methyl-amino]propanenitrile] | < 30 nM | < 100 nM | < 100 nM |
| CN(CCC#N)c1c(N2CCNCC2)ccc2c1CC(C)(C)c1c(N)ncnc1-2 [Example 125, 3-[(4-amino-5,5-dimethyl-8-piperazin-1-yl-6H-benzo[h]quinazolin-7-yl)-methyl-amino]propanenitrile] | < 30 nM | < 100 nM | < 100 nM |
| CCOC(=O)CNc1c(O[C@H]2CC[C@@H](N)CC2)ccc2c1CC1(CCCC1)c1c(N)ncnc1-2 [Example 65, ethyl 2-[[4-amino-8-(cis-4-aminocyclohexoxy)spiro[6H-benzo[h]quinazoline-5,1′-cyclopentane]-7-yl]amino]acetate] | 30 to 100 nM | 100 to 2000 nM | 100 to 2000 nM |
| COc1ccc2c(c1NCC(O)CO)CC(C)(C)c1c(N)ncnc1-2 (stereo not drawn) [Example 27, 3-[(4-amino-8-methoxy-5,5-dimethyl-6H-benzo[h]quinazolin-7-yl)amino]propane-1,2-diol] | 30 to 100 nM | 100 to 2000 nM | 100 to 2000 nM |
